Like-named read-outs stand apart in the source and are kept apart here.
Biological target: human Cav2.2 (Homo sapiens, UniProt Q00975)
Test: Assessment of calcium channel activity using FLIPR (Ca2+ influx in IMR32 cells)
Type: cell-based
Protocol: (i) In Vitro Methods—Assessment of Calcium Channel Activity Using FLIPR:
The IMR32 cells were maintained in MEM media containing 10% (v/v) FBS, 1% (v/v) antibiotic/antimitotic, 1% (v/v) sodium pyruvate and 1% (v/v) MEM NEAA. Following dissociation in 0.05% (v/v) trypsin/EDTA, cells were seeded into black 1×96-well plates (Corning Cellbind) at a density of 1−1.2×10^5 cells/well and incubated in the maintenance media above for 48 hours at 37° C. […] To determine the IC50 values, the percent inhibition of the compound at each concentration was determined relative to the activity in the absence of inhibitor, and data was fitted using non-linear regression sigmoidal dose response curve analysis with GraphPad Prism®.

[1] = read-out: IC50 (μM) or percent inhibition (* indicates 3 minute incubation, otherwise 60 minute), IC50, 60 minute pre-incubation with compound, IMR32 cells, 80 mM KCl depolarization

human Cav2.2, sequence (Q00975 whole entry): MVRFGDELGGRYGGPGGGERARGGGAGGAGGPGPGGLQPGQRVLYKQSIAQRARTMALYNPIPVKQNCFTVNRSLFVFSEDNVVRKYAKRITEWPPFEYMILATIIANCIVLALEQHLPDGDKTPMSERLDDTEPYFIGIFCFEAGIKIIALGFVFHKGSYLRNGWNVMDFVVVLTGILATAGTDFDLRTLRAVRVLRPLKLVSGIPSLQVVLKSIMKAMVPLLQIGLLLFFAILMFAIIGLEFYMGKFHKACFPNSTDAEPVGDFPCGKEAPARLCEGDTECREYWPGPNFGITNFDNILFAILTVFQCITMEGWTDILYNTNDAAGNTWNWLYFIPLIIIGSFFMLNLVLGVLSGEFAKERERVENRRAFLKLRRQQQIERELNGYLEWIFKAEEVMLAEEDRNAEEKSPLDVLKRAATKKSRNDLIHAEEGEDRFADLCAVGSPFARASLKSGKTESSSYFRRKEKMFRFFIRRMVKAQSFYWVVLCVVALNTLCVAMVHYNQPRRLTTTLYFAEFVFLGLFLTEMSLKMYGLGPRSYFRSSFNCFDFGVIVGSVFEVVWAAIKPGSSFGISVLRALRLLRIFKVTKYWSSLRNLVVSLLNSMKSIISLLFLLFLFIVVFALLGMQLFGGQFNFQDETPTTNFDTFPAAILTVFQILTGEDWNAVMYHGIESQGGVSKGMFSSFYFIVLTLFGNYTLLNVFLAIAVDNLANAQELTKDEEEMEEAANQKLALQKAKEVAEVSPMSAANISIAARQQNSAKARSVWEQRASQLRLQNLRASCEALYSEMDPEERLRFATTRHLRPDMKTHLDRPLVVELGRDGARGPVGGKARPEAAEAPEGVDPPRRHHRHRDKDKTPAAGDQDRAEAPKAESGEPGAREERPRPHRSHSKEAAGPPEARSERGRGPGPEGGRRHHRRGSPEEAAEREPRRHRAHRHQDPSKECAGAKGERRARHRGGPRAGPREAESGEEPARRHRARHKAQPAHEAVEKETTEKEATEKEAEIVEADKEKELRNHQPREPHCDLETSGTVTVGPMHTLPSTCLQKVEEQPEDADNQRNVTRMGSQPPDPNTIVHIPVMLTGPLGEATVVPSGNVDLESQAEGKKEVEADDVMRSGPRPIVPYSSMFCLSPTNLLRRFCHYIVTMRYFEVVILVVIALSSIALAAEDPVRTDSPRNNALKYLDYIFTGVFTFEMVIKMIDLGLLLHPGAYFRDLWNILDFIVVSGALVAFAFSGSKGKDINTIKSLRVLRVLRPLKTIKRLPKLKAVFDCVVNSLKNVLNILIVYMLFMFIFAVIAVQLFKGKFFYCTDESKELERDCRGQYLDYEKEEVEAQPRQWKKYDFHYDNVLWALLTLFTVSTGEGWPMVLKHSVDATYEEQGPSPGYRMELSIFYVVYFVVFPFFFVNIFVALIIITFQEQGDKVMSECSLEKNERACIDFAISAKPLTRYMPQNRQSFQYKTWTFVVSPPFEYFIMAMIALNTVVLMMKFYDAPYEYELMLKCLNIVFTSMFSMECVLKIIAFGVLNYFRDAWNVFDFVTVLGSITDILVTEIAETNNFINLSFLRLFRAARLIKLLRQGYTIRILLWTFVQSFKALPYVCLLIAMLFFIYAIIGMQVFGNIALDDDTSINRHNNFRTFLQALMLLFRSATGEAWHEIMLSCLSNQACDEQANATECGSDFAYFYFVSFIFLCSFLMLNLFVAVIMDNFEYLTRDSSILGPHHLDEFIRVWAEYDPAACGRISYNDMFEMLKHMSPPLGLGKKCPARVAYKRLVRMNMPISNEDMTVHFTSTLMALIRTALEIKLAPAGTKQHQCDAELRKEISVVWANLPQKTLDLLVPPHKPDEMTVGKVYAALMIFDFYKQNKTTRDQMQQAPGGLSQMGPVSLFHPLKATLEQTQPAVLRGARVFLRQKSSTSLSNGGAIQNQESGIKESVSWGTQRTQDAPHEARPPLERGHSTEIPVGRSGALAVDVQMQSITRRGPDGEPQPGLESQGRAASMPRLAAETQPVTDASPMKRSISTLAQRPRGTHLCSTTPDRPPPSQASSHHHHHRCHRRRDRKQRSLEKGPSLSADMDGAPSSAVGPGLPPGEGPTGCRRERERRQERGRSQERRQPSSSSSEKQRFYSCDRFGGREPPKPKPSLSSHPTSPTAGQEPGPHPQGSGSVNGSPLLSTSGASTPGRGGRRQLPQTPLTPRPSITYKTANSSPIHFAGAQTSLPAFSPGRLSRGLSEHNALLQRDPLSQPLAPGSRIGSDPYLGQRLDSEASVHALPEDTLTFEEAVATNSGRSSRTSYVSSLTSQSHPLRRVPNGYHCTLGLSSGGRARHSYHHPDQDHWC
human Cav2.2, sequence (P54289 25-956 partner limits assumed): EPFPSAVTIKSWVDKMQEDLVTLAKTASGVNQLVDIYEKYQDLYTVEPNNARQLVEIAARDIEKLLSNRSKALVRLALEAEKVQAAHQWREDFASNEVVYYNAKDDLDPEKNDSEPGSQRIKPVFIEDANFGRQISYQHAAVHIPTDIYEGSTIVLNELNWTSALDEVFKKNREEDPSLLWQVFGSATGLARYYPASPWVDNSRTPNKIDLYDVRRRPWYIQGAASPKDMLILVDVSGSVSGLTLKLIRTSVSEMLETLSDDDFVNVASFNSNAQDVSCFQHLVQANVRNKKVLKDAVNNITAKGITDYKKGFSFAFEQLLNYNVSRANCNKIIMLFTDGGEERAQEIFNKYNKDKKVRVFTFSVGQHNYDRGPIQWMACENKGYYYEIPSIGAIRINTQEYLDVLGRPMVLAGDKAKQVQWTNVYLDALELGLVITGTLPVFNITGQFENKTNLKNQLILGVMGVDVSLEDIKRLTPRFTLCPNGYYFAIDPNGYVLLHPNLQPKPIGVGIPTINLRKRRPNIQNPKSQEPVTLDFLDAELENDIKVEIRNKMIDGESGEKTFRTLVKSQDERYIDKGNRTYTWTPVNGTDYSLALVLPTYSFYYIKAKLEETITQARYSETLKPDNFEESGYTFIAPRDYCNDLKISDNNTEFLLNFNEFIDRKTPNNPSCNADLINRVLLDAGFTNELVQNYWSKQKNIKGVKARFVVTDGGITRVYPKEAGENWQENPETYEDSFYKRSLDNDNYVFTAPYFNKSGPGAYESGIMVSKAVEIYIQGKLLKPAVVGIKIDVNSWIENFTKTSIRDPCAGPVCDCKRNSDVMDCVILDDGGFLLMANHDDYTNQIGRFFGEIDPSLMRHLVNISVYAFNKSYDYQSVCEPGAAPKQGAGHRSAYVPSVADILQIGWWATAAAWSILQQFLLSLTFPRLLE
human Cav2.2, sequence (P54289 957-1103 partner limits assumed): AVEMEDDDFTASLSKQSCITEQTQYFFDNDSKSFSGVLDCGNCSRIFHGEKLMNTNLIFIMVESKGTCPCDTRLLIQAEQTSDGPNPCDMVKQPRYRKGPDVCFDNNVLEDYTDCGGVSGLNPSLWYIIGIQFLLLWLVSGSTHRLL
human Cav2.2, sequence (P54284 whole entry partner): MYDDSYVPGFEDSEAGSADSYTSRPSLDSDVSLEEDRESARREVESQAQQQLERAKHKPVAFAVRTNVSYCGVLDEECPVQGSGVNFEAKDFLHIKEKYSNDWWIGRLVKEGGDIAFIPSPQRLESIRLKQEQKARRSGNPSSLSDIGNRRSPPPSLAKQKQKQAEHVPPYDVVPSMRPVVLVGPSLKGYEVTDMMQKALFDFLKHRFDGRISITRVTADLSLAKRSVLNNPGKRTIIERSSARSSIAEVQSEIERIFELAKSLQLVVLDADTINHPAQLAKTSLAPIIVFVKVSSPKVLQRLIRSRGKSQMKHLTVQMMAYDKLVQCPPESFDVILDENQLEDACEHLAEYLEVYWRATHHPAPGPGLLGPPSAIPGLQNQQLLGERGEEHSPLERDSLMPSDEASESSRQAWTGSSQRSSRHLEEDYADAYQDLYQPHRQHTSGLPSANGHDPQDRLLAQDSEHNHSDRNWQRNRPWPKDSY

Compound	IC50 [1] [µM]	IC50 [µM]
O=S(=O)(c1cccc(C(F)(F)F)c1)N(C1CC1)[C@H]1CC[C@H]2CN(CCC(c3ccc(F)cc3)c3ccc(F)cc3)C[C@H]21 (relative stereo) [Example 203, N-{(3aS*,4S*,6aR*)-2-[3,3-bis(4-fluorophenyl)propyl]octahydrocyclopenta[c]pyrrol-4-yl}-N-cyclopropyl-3-(trifluoromethyl)benzenesulfonamide]	1.54	
CCN(CC)[C@H]1CC[C@@H]2CN(S(=O)(=O)c3ccc(C(F)(F)F)cc3)C[C@@H]21 [Example 289, (3aR,4S,6aS)-N,N-diethyl-2-{[4-(trifluoromethyl)phenyl]sulfonyl}octahydrocyclopenta[c]pyrrol-4-amine]	9.75	
O=C(N[C@@H]1CC[C@H]2CN(Cc3cc(C(F)(F)F)cc(C(F)(F)F)c3)C[C@H]21)C(C1CCCCC1)C1CCCCC1 [Example 77, N-{(3aS,4R,6aR)-2-[3,5-bis(trifluoromethyl)benzyl]octahydrocyclopenta[c]pyrrol-4-yl}-2,2-dicyclohexylacetamide]	9.36	
N#Cc1cccc(N2C[C@H]3CC[C@H](NC(=O)[C@@H]4C[C@@H](F)CN4)[C@H]3C2)c1 [Example 632, (4R)-N-[(3aR,4S,6aS)-2-(3-cyanophenyl)octahydrocyclopenta[c]pyrrol-4-yl]-4-fluoro-L-prolinamide]		18.9
CC(C)C(C(=O)N[C@H]1CC[C@@H]2CN(CCC(c3ccccc3)c3ccccc3)C[C@@H]21)c1ccccc1 (stereo partly drawn) [Example 116, N-[(3aR,4S,6aS)-2-(3,3-diphenylpropyl)octahydrocyclopenta[c]pyrrol-4-yl]-3-methyl-2-phenylbutanamide]	1.17	
O=C(N[C@H]1CC[C@H]2CN(Cc3ccncc3)C[C@H]21)C(C1CCCCC1)C1CCCCC1 [Example 72, 2,2-dicyclohexyl-N-[(3aS,4S,6aR)-2-(pyridin-4-ylmethyl)octahydrocyclopenta[c]pyrrol-4-yl]acetamide]	3.23	
CC(C)C[C@@H](C(=O)N[C@@H]1CC[C@H]2CN(Cc3ccccc3)C[C@H]21)N1CCOCC1 [Example 249, (2S)-N-[(3aS,4R,6aR)-2-benzyloctahydrocyclopenta[c]pyrrol-4-yl]-4-methyl-2-morpholin-4-ylpentanamide]		> 30
(3aR,4S,6aS)-N-(1H-pyrrolo[2,3-b]pyridin-2-ylmethyl)-2-[6-(trifluoromethyl)pyridin-2-yl]octahydrocyclopenta[c]pyrrol-4-amine [Example 693]	1.42	
Fc1cc(F)cc(-c2n[nH]cc2CN[C@H]2CC[C@@H]3CN(c4cccc(C(F)(F)F)n4)C[C@@H]32)c1 [Example 687, (3aR,4S,6aS)-N-{[3-(3,5-difluorophenyl)-1H-pyrazol-4-yl]methyl}-2-[6-(trifluoromethyl)pyridin-2-yl]octahydrocyclopenta[c]pyrrol-4-amine]		1.27
CC(C)C(C(=O)N[C@H]1CC[C@@H]2CN(CCCCc3ccccc3)C[C@@H]21)c1ccccc1 (stereo partly drawn) [Example 113, 3-methyl-2-phenyl-N-[(3aR,4S,6aS)-2-(4-phenylbutyl)octahydrocyclopenta[c]pyrrol-4-yl]butanamide]		0.59
CC(C)C(C(=O)N[C@H]1CC[C@@H]2CN(CCCc3ccccc3)C[C@@H]21)c1ccccc1 (stereo partly drawn) [Example 105, 3-methyl-2-phenyl-N-[(3aR,4S,6aS)-2-(3-phenylpropyl)octahydrocyclopenta[c]pyrrol-4-yl]butanamide]		1.21
CC(C)C[C@H](C(=O)N1C[C@@H]2CC[C@@H](NC(=O)C(C3CCCCC3)C3CCCCC3)[C@@H]2C1)N(C)C [Example 217, 2,2-dicyclohexyl-N-[(3aS,4R,6aR)-2-(N,N-dimethyl-D-leucyl)octahydrocyclopenta[c]pyrrol-4-yl]acetamide]	1.28	
O=S(=O)(N[C@@H]1CC[C@H]2CN(Cc3cccc(C(F)(F)F)c3)C[C@H]21)c1cccc(C(F)(F)F)c1 [Example 189, 3-(trifluoromethyl)-N-{(3aS,4R,6aR)-2-[3-(trifluoromethyl)benzyl]octahydrocyclopenta[c]pyrrol-4-yl}benzenesulfonamide]	1.01	
O=C(N[C@H]1CC[C@@H]2CN(c3cccc(C(F)(F)F)n3)C[C@@H]21)[C@H]1CC[C@@H](O)CC1 [Example 584, cis-4-hydroxy-N-{(3aR,4S,6aS)-2-[6-(trifluoromethyl)pyridin-2-yl]octahydrocyclopenta[c]pyrrol-4-yl}cyclohexanecarboxamide]		2.06
CS(=O)(=O)N1CCCC[C@H]1C(=O)N[C@@H]1CC[C@H]2CN(Cc3ccccc3)C[C@H]21 [Example 514, (2S)-N-[(3aS,4R,6aR)-2-benzyloctahydrocyclopenta[c]pyrrol-4-yl]-1-(methylsulfonyl)piperidine-2-carboxamide]		> 22.5
CC[C@H](N)C(=O)N[C@H]1CC[C@@H]2CN(c3ccc(C(F)(F)F)cc3)C[C@@H]21 [Example 755, (2S)-2-amino-N-{(3aR,4S,6aS)-2-[4-(trifluoromethyl)phenyl]octahydrocyclopenta[c]pyrrol-4-yl}butanamide]		> 3
O=S(=O)(c1cccc(C(F)(F)F)c1)N(C1CC1)[C@H]1CC[C@H]2CN(Cc3cccc(C(F)(F)F)c3)C[C@H]21 (relative stereo) [Example 204, N-cyclopropyl-3-(trifluoromethyl)-N-{(3aS*,4S*,6aR*)-2-[3-(trifluoromethyl)benzyl]octahydrocyclopenta[c]pyrrol-4-yl}benzenesulfonamide]	1.27	
O=C(N[C@H]1CC[C@@H]2CN(c3cccc(C(F)(F)F)n3)C[C@@H]21)c1ccc2ccccc2n1 [Example 569, N-{(3aR,4S,6aS)-2-[6-(trifluoromethyl)pyridin-2-yl]octahydrocyclopenta[c]pyrrol-4-yl}quinoline-2-carboxamide]		0.98

Now from value to compound:

IC50 [1] [µM]	IC50 [µM]	Compound
10.3		CCC[C@H](NC)C(=O)N[C@H]1CC[C@@H]2CN(C(=O)c3cccc(C(F)(F)F)c3)C[C@@H]21 [Example 554, N^2-methyl-N^1-{(3aR,4S,6aS)-2-[3-(trifluoromethyl)benzoyl]octahydrocyclopenta[c]pyrrol-4-yl}-L-norvalinamide]
	0.66	O=C(CC(c1ccccc1)c1ccccc1)N[C@H]1CC[C@H]2CN(Cc3cccc(C(F)(F)F)c3)C[C@H]21 (relative stereo) [Example 131, 3,3-diphenyl-N-{(3aS*,4S*,6aR*)-2-[3-(trifluoromethyl)benzyl]octahydrocyclopenta[c]pyrrol-4-yl}propanamide]
	26.4	CN[C@@H](CC(C)C)C(=O)N[C@H]1CC[C@@H]2CN(c3nnc(C(F)(F)F)s3)C[C@@H]21 [Example 734, N^2-methyl-N-{(3aR,4S,6aS)-2-[5-(trifluoromethyl)-1,3,4-thiadiazol-2-yl]octahydrocyclopenta[c]pyrrol-4-yl}-L-leucinamide]
	1	CC(C)C[C@@H](O)C(=O)N[C@H]1CC[C@@H]2CN(c3cccc(C(F)(F)F)n3)C[C@@H]21 [Example 578, (2R)-2-hydroxy-4-methyl-N-{(3aR,4S,6aS)-2-[6-(trifluoromethyl)pyridin-2-yl]octahydrocyclopenta[c]pyrrol-4-yl}pentanamide]
3.78		CN[C@H](CC(C)C)C(=O)N[C@H]1CC[C@H]2CN(Cc3cccc(C(F)(F)F)c3)C[C@H]21 (relative stereo) [Example 160, N^2-methyl-N^1-{(3aS*,4S*,6aR*)-2-[3-(trifluoromethyl)benzyl]octahydrocyclopenta[c]pyrrol-4-yl}-D-leucinamide]
	10.6	CCC[C@H](NC)C(=O)N[C@H]1CC[C@@H]2CN(c3ccc(OC(F)(F)F)cc3)C[C@@H]21 [Example 719, N^2-methyl-N-{(3aR,4S,6aS)-2-[4-(trifluoromethoxy)phenyl]octahydrocyclopenta[c]pyrrol-4-yl}-L-norvalinamide]
8.6		CN[C@@H](CC(C)C)C(=O)N[C@H]1CC[C@@H]2CN(Cc3cccc(C(F)(F)F)c3)C[C@@H]21 [Example 379, N^2-methyl-N^1-{(3aR,4S,6aS)-2-[3-(trifluoromethyl)benzyl]octahydrocyclopenta[c]pyrrol-4-yl}-L-leucinamide]
	> 9.5	CN[C@H](C(=O)N[C@H]1CC[C@@H]2CN(c3ccc(C(F)(F)F)cc3)C[C@@H]21)C(C)C [Example 747, N^2-methyl-N-{(3aR,4S,6aS)-2-[4-(trifluoromethyl)phenyl]octahydrocyclopenta[c]pyrrol-4-yl}-L-valinamide]
1.64		CN[C@@H](CC(C)C)C(=O)N[C@H]1CC[C@H]2CN(Cc3cccc(C(F)(F)F)c3)C[C@H]21 [Example 164, N^2-methyl-N^1-{(3aS,4S,6aR)-2-[3-(trifluoromethyl)benzyl]octahydrocyclopenta[c]pyrrol-4-yl}-L-leucinamide]
	1.66	CN[C@@H](Cc1ccccc1)C(=O)N[C@H]1CC[C@@H]2CN(S(=O)(=O)c3ccc(C(F)(F)F)cc3Cl)C[C@@H]21 [Example 432]
1.21		CC(C)C[C@@H](C(=O)N[C@H]1CC[C@H]2CN(Cc3cccc(C(F)(F)F)c3)C[C@H]21)N(C)S(C)(=O)=O [Example 167, N^2-methyl-N^2-(methylsulfonyl)-N^1-{(3aS,4S,6aR)-2-[3-(trifluoromethyl)benzyl]octahydrocyclopenta[c]pyrrol-4-yl}-L-leucinamide]
	0.45	O=C(N[C@@H]1CC[C@H]2CN(Cc3cccc(C(F)(F)F)c3)C[C@H]21)C(C1CCCCC1)C1CCCCC1 [Example 75, 2,2-dicyclohexyl-N-{(3aS,4R,6aR)-2-[3-(trifluoromethyl)benzyl]octahydrocyclopenta[c]pyrrol-4-yl}acetamide]

From patent US8691865B2 (AbbVie Inc., priority 2008, dated 2014)
